{"source": "patent US6998395B2", "about": "“Administration of estradiol metabolites for the treatment or prevention of obesity, metabolic syndrome, diabetes, and vascular and renal disorders” (University of Pittsburg,, priority 2001, dated 2006)", "type_in_all_cases": "in vivo, rat", "key": {"female ZSF1 rats": {"test_system": "female ZSF1 rats", "test": "Treatment of ovarectomized female ZSF1 rats for 24 weeks with 2-hydroxyestradiol", "settings": "10 ug/kg/hr", "protocol": "Male ZSF1 rats were treated continuously for 24 weeks with polyethylene glycol 400 (PEG 400) (Sigma, St. Louis, Mo.) or one of three doses of 2-hydroxyestradiol or 2-methoxyestradiol (Steraloids, Inc. Newport, R.I.) dissolved in PEG 400. The three doses were 1 ug/kg/hr, 3 ug/kg/hr or 10 ug/kg/hr. Female ZSF1 rats were treated continuously for 24 weeks with either PEG 400 or 10 ug/kg/hr of 2-hydroxyestradiol. Female ZSF1 rats were ovarectomized at 11 weeks of age. For all animals, both male and female, treatments with estradiol metabolites were begun at approximately 13 weeks of age. […]\nMetabolic cages (Nalgene, Rochester, N.Y.) were used in this study. […] The first 24-hour period was considered an acclimation period, while food and fluid intake and urine volume were measured during the second 24-hour period. […] The blood was further analyzed to assess creatinine clearance, fractional sodium excretion, fractional potassium excretion and fractional albumin excretion. In addition, the following criteria were also assessed while the animals were in the metabolic cages: body weight, feed intake, water intake, urine output, urinary protein, urinary albumin, urinary glucose, urinary sodium and urinary potassium. […]\n(§1) Food intake was measured by filling the food containers with standard powder laboratory food up to a total weight of 250 grams. […]"}, "male ZSF1 rats [1]": {"test_system": "male ZSF1 rats", "test": "Treatment of male ZSF1 rats for 24 weeks with 2-hydroxyestradiol or 2-methoxyestradiol", "settings": "10 ug/kg/hr, 28 weeks, versus control animals"}, "male obese ZSF1 rats": {"test_system": "male obese ZSF1 rats", "test": "Treatment of male obese ZSF1 rats for 26 weeks with 2-hydroxyestradiol: body weight, food intake, metabolic cage and plasma parameters", "description": "Twenty 12-week-old male obese ZSF1 rats (Genetic Models Inc., Indianapolis, Ind.) were used. Obese ZSF1 rats were developed by crossing lean female Zucker Diabetic Fatty rats (ZDF +/fa) and lean male Spontaneously Hypertensive Heart Failure rats (SHHF/Mcc-fa^cp, +/cp). As recently described by Tofovic, S. P., et al., Renal Failure 22: 387 (2000) the disclosure of which is incorporated herein by reference, compared with several different rat strains including Wistar-Kyoto normotensive rats, spontaneously hypertensive rats and obese SHHF/Mcc-fa^cp rats, obese ZSF1 rats have the metabolic syndrome (i.e., hypertension, diabetes and hyperlipidemia), left ventricular dysfunction, and develop nephropathy as characterized by massive proteinuria, abnormal renal histopathology (glomerulosclerosis and severe tubulointerstitial and vascular changes) and reduced glomerular filtration rate. Thus, this rat strain develops obesity, the metabolic syndrome and the end-organ sequelae associated with the metabolic syndrome.\nAt baseline, animals were placed in metabolic cages and food intake, water intake, urine output and urinary excretion of proteins (bicinchoninic acid method) and glucose (Infinity™ Glucose Reagent, Sigma Diagnostics, St Louis, Mo.) were determined. Next, osmotic mini pumps infusing either vehicle (polyethylene glycol 400, 2.5 ul/hour) or 2-hydroxyestradiol (10 ug/kg/hour) were implanted subcutaneously (random assignment). Minipumps were replaced every 33 days. Metabolic cage studies were repeated 12 and 24 weeks after initiation of treatments. After 9 and 25 weeks of treatment, animals were fasted overnight, and blood samples (tail vein) for measurement of cholesterol were taken. Plasma samples were analyzed in duplicates for cholesterol levels (Sigma Diagnostics, St. Louis, Mo.). After 26 weeks of treatment, animals were fasted overnight, an oral glucose tolerance test was conducted and total glycated hemoglobin levels were determined (Sigma Diagnostics). Plasma glucose levels were measured with the Precision Q.I.D. Blood Glucose Test Strips kit (Medisense, Inc., Bedford, Mass.).\nAll values refer to means±SEM for 9 to 10 animals in each group. Statistical significance was calculated using either an unpaired Student's t-test or a 2-factor analysis of variance (repeated measures) followed by a Fisher's Least Significance Difference test if appropriate. The criterion of significance was p<0.05."}, "male ZSF1 rats [2]": {"test_system": "male ZSF1 rats", "test": "Treatment of male ZSF1 rats for 24 weeks with 2-hydroxyestradiol or 2-methoxyestradiol", "protocol": "Male ZSF1 rats were treated continuously for 24 weeks with polyethylene glycol 400 (PEG 400) (Sigma, St. Louis, Mo.) or one of three doses of 2-hydroxyestradiol or 2-methoxyestradiol (Steraloids, Inc. Newport, R.I.) dissolved in PEG 400. The three doses were 1 ug/kg/hr, 3 ug/kg/hr or 10 ug/kg/hr. Female ZSF1 rats were treated continuously for 24 weeks with either PEG 400 or 10 ug/kg/hr of 2-hydroxyestradiol. Female ZSF1 rats were ovarectomized at 11 weeks of age. For all animals, both male and female, treatments with estradiol metabolites were begun at approximately 13 weeks of age. One group of male ZSF1 rats received only PEG 400 but were pair fed to receive the same daily food intake as the male ZSF1 rats treated with 10 ug/kg/hr 2-hydroxyestradiol. Treatment was administered via subcutaneous implanted pumps (Alzet Osmotic Pump, Model 2ML4, Alza Corporation, Palo Alto, Calif.). The study was designed to evaluate treatment effects and dose responses on body weight, food intake, water intake, urine output, urinary protein excretion, cholesterol levels, plasma glucose levels and glucose tolerance.\nStock solutions of both 2-hydroxyestradiol and 2-methoxyestradiol were made by dissolving the required amount of estradiol metabolite in PEG 400. This solution was diluted in PEG 400 to deliver the three required doses based on the mean weight of each treatment group and the stated volume delivery rate for each lot of osmotic pumps in the study. This stock solution was prepared fresh prior to each osmotic pump implantation in each group. The control solution of PEG 400 was created in the same manner.\nAll treatments were administered via a subcutaneously implanted osmotic pump (Alzet Osmotic Pump, Model 2ML4, Alza Corporation, Palo Alto, Calif.). Each lot of osmotic pumps were delivered with the stated rate of delivery and formulation concentrations were adjusted to ensure delivery of 1,3, or 10 ug/kg/hr based on the stated rate of delivery of each lot. Doses were adjusted for the mean weight of the animals in the treatment group obtained 24 hours prior to implantation of the osmotic minipump.\nAnimals were anesthetized prior to implantation of an osmotic minipump with halothane and oxygen (2.5 liter/min) delivered by a Fluotec 3 anesthetic device (Ohmeda, Steeton, UK). After lightly anesthetizing each animal, implantation was accomplished by shaving the back and creating a half-inch incision in which to insert the osmotic minipump. The incision was then closed with wound clips that were removed in seven days. Osmotic minipumps were replaced at 33-day intervals and each time a particular animal received an osmotic minipump, the insertion point was changed.\nMetabolic cages (Nalgene, Rochester, N.Y.) were used in this study. Animals were placed in metabolic cages for 48 hours. The first 24-hour period was considered an acclimation period, while food and fluid intake and urine volume were measured during the second 24-hour period. Additionally, a tail vein sample was obtained to measure blood glucose, sodium, potassium, albumin and creatinine. The blood was further analyzed to assess creatinine clearance, fractional sodium excretion, fractional potassium excretion and fractional albumin excretion. In addition, the following criteria were also assessed while the animals were in the metabolic cages: body weight, feed intake, water intake, urine output, urinary protein, urinary albumin, urinary glucose, urinary sodium and urinary potassium.\nBody weights were assessed 24 hours before pump implantation and those weights were used to calculate the dosage of drug or vehicle to be given to each animal based on the mean body weight of each group. Animals were weighed approximately once every two months prior to being placed in a metabolic cage.\nas §1"}, "[3]": {"settings": "10 ug/kg/hour s.c., 12 weeks of treatment"}, "[4]": {"settings": "10 ug/kg/hour s.c., 24 weeks of treatment"}, "[5]": {"settings": "Table 1, after approximately 6 months of treatment"}, "[6]": {"settings": "male, 10 ug/kg/hr, 24 weeks, versus control animals"}, "[7]": {"settings": "male, 1, 3 or 10 ug/kg/hr s.c. osmotic pump, 24 weeks, versus control"}}, "note": "Entries after “also recorded” stand apart in the source; their conditions may differ."}
{"smiles": "C[C@]12CC[C@@H]3c4cc(O)c(O)cc4CC[C@H]3[C@@H]1CC[C@@H]2O", "note": "[2-hydroxyestradiol, estra-1,3,5 (10)-triene-2,3,1 7-triol (17β)]", "values": [{"measurement": "Leptin levels (FIG. 11)", "setting": "female ZSF1 rats; 20 weeks, versus control animals", "result": "reduced"}, {"measurement": "Blood urea nitrogen (FIG. 10)", "setting": "female ZSF1 rats; 24 weeks, versus control groups", "result": "lower"}, {"measurement": "Glycated hemoglobin (HbA1c) (FIG. 14)", "setting": "male ZSF1 rats [1]", "result": "lower"}, {"measurement": "Body weight", "setting": "male obese ZSF1 rats; 10 ug/kg/hour s.c. osmotic minipump, 12 weeks of treatment, mean±SEM", "result": "545±13", "unit": "grams"}, {"measurement": "Body weight", "setting": "male obese ZSF1 rats; 10 ug/kg/hour s.c. osmotic minipump, 26 weeks of treatment, mean±SEM", "result": "571±13", "unit": "grams"}, {"measurement": "Hypercholesterolemia (plasma cholesterol)", "setting": "male obese ZSF1 rats; 10 ug/kg/hour s.c., 9 weeks of treatment, fasted overnight", "result": "151±9", "unit": "mg cholesterol/100 ml"}, {"measurement": "Food intake", "setting": "male obese ZSF1 rats; [3]", "result": "26.4±1.3", "unit": "grams/day"}, {"measurement": "Glucosuria", "setting": "male obese ZSF1 rats; [3]", "result": "0.2±0.2", "unit": "grams glucose/day"}, {"measurement": "Polydipsia", "setting": "male obese ZSF1 rats; [3]", "result": "40.1±4.0 mls of water consumed/day"}, {"measurement": "Polyuria", "setting": "male obese ZSF1 rats; [3]", "result": "23.6±2.4 mls of urine/day"}, {"measurement": "Food intake", "setting": "male obese ZSF1 rats; [4]", "result": "36.6±0.9", "unit": "grams/day"}, {"measurement": "Glucosuria", "setting": "male obese ZSF1 rats; [4]", "result": "1.7±0.5", "unit": "grams glucose/day"}, {"measurement": "Polydipsia", "setting": "male obese ZSF1 rats; [4]", "result": "67.4±4.5 mls of water consumed"}, {"measurement": "Polyuria", "setting": "male obese ZSF1 rats; [4]", "result": "45.6±3.8 mls of urine/day"}, {"measurement": "Hypercholesterolemia (plasma cholesterol)", "setting": "male obese ZSF1 rats; 10 ug/kg/hour s.c., 25 weeks of treatment, fasted overnight", "result": "247±28", "unit": "mg cholesterol/100 ml"}, {"measurement": "Glycated hemoglobin", "setting": "male obese ZSF1 rats; 10 ug/kg/hour s.c., 26 weeks into the study", "result": "3.8±0.7", "unit": "%"}, {"measurement": "Oral glucose tolerance test: plasma glucose 2 hours after an oral dose of 2 grams of glucose per kg body weight", "setting": "male obese ZSF1 rats; 10 ug/kg/hour s.c., 26 weeks of treatment, fasted overnight", "result": "265±13", "unit": "mg/100 ml"}, {"measurement": "Progression of proteinuria (urinary protein excretion, FIG. 1)", "setting": "male obese ZSF1 rats; 10 ug/kg/hour s.c., baseline, 12 and 24 weeks, versus vehicle", "result": "significant (p<0.001) effect of time and treatment; also recorded: attenuated the progression of proteinuria"}, {"measurement": "Food intake", "setting": "male obese ZSF1 rats; [5]", "result": "36.6 ± 0.9", "unit": "grams"}, {"measurement": "Glycated hemoglobin", "setting": "male obese ZSF1 rats; [5]", "result": "3.8 ± 0.7", "unit": "%"}, {"measurement": "Plasma Cholesterol", "setting": "male obese ZSF1 rats; [5]", "result": "247 ± 28", "unit": "mg/100 ml"}, {"measurement": "Plasma Glucose 2 Hours After Oral Glucose Load of 2 g/kg", "setting": "male obese ZSF1 rats; [5]", "result": "265 ± 13", "unit": "mg/100 ml"}, {"measurement": "Urinary Glucose Excretion", "setting": "male obese ZSF1 rats; [5]", "result": "1.7 ± 0.5", "unit": "grams/day"}, {"measurement": "Urinary Protein Excretion", "setting": "male obese ZSF1 rats; [5]", "result": "333 ± 21", "unit": "mg/day"}, {"measurement": "Urine Volume", "setting": "male obese ZSF1 rats; [5]", "result": "45.6 ± 3.8", "unit": "mL/day"}, {"measurement": "Water Intake", "setting": "male obese ZSF1 rats; [5]", "result": "67.4 ± 4.5", "unit": "mL/day"}, {"measurement": "Body weight", "setting": "male obese ZSF1 rats; Table 1, after approximately 6 months of treatment, mean ± SEM", "result": "571 ± 11", "unit": "grams"}, {"measurement": "Leptin levels (FIG. 11)", "setting": "male ZSF1 rats [2]; male, 10 ug/kg/hr, 20 weeks, versus control animals", "result": "clearly reduced"}, {"measurement": "24-hour urine output (FIG. 13)", "setting": "male ZSF1 rats [2]; [6]", "result": "lower"}, {"measurement": "24-hour water intake (FIG. 12)", "setting": "male ZSF1 rats [2]; [6]", "result": "lower"}, {"measurement": "Blood urea nitrogen (FIG. 10)", "setting": "male ZSF1 rats [2]; male, 10 ug/kg/hr, 24 weeks, versus control groups", "result": "lower"}, {"measurement": "Plasma level of glucose after administration of 2 g/4 ml/kg glucose (oral glucose tolerance test, FIGS. 8 and 9)", "setting": "male ZSF1 rats [2]; male, 10 ug/kg/hr, treated for 14 to 15 weeks, versus control groups", "result": "lower"}, {"measurement": "Body weight gain (FIGS. 4 and 5)", "setting": "male ZSF1 rats [2]; [7]", "result": "less body weight gain"}, {"measurement": "Food intake", "setting": "male ZSF1 rats [2]; [7]", "result": "lower food intake"}, {"measurement": "Urinary protein excretion (FIG. 7)", "setting": "male ZSF1 rats [2]; male, 1, 3 or 10 ug/kg/hr, after 24 weeks of treatment, versus control animals", "result": "lower"}]}
